The source made the active and inactive calls.
Columns and labels:
Hexokinase-1 = target: T1, Hexokinase-1 (Homo sapiens, UniProt P19367); experiment: SAR analysis of small molecule inhibitors of hexokinase domain containing I (HKDC1) in the hexokinase 1 selectivity assay. [Related pubchem assays (depositor defined):AID493160, AID493190]; assay type: functional
T1 sequence (P19367 whole entry): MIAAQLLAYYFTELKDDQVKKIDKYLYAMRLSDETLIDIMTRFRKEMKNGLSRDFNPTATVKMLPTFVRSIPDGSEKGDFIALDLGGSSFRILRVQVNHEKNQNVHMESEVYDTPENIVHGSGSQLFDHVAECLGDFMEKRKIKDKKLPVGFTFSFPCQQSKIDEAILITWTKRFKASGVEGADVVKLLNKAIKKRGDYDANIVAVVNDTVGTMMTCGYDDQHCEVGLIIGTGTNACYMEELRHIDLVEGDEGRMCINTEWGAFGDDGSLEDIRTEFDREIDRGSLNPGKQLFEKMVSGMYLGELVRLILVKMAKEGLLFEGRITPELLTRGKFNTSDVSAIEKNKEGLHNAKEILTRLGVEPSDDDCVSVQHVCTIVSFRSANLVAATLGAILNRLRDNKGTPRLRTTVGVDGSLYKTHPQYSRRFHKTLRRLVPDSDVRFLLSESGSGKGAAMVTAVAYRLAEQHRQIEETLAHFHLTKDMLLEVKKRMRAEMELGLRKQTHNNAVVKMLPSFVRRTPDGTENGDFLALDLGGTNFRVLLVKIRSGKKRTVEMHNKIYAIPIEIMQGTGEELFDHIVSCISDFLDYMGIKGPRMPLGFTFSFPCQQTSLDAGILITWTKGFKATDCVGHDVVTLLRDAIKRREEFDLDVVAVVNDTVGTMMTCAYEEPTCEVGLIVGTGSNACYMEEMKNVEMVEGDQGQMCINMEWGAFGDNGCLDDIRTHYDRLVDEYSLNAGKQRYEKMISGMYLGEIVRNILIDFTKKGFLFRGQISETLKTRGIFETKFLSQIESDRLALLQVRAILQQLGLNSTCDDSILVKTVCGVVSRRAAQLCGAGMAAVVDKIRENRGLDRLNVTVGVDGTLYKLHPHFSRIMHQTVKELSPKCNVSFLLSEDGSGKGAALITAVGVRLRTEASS

Hexokinase HKDC1 = target: T2, Hexokinase HKDC1 (Homo sapiens, UniProt Q2TB90); experiment: SAR analysis of small molecule inhibitors of hexokinase domain containing I (HKDC1). [Related pubchem assays (depositor defined):AID493160, AID493190]; assay type: functional
T2 sequence (Q2TB90 whole entry): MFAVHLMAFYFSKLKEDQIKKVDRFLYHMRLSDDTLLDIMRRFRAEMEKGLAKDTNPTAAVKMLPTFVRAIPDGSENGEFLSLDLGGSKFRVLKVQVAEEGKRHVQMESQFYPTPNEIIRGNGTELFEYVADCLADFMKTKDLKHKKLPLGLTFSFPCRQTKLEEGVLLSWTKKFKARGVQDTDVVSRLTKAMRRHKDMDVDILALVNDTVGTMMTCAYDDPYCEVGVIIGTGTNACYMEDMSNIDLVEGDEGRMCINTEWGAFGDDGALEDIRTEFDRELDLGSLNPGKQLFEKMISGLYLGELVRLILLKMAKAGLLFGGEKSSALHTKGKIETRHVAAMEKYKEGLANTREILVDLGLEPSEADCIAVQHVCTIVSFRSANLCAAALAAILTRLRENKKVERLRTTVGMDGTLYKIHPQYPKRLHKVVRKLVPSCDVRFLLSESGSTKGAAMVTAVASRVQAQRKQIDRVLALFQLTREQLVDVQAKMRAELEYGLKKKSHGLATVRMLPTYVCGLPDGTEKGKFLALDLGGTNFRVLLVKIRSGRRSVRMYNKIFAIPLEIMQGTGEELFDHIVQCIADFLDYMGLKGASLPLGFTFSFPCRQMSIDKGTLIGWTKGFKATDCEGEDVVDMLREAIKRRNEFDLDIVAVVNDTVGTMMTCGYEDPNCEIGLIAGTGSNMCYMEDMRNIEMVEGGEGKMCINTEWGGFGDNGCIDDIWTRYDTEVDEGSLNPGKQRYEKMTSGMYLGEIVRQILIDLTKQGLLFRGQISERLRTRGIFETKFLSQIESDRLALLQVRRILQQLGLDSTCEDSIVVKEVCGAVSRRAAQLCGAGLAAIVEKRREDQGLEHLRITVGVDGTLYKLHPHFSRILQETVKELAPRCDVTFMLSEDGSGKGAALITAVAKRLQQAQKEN

Cysteine protease ATG4B = target: T3, Cysteine protease ATG4B (Homo sapiens, UniProt Q9Y4P1); assay type: functional;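 also: Fluorescence-based dose-response confirmation assay measuring inhibition of ATG4B activity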
T3 sequence (Q9Y4P1 whole entry): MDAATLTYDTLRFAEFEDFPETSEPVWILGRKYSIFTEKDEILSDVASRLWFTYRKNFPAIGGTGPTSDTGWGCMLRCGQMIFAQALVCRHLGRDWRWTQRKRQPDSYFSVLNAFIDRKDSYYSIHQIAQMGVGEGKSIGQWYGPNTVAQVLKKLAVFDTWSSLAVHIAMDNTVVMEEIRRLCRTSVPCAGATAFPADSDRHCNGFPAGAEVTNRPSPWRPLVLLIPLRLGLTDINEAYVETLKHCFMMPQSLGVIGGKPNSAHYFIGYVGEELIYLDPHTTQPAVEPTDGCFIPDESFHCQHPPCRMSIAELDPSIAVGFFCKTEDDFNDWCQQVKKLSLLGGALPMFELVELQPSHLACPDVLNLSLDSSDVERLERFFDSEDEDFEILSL

Phospholipase A2 = Phospholipase A2 (Homo sapiens, UniProt P04054); assay type: functional;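 also: confirmatory dose-response counterscreen on phospholipase A2, testing hits that came from an ultra-high-throughput screen for ATG4B inhibitors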
Chain of Phospholipase A2 (P04054 whole entry): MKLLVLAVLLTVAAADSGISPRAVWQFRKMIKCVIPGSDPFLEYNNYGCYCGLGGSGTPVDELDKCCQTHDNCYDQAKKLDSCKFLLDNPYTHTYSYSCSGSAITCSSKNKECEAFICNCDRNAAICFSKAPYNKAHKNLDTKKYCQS

Leucine aminopeptidase = target: T4, Leucine aminopeptidase (Plasmodium falciparum 3D7, UniProt Q8IL11); experiment: P. falciparum M17LAP inhibitors, primary screen, biochemical, fluorogenic H-Leu-NHMec substrate, 1536-well (AID 1619); assay type: functional
T4 sequence (Q8IL11 whole entry): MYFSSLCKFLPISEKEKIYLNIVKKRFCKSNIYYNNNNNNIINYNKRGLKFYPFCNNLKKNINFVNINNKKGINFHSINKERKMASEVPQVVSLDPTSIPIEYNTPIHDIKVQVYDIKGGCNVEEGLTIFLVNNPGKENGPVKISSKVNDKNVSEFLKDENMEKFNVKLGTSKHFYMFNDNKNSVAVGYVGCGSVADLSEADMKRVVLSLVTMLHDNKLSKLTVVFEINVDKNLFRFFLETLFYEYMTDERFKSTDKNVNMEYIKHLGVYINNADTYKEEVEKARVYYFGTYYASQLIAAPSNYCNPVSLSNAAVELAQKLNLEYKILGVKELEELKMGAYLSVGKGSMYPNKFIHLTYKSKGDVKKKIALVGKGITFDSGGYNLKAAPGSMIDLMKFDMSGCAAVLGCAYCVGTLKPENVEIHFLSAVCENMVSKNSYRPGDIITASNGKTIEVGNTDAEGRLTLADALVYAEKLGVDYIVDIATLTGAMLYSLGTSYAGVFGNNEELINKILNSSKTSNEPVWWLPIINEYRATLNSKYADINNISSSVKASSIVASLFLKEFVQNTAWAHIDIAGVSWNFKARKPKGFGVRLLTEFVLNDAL

[1] = target: T5, Carboxy-terminal domain RNA polymerase II polypeptide A small phosphatase 1 (Homo sapiens, UniProt Q9GZU7); experiment: inhibitors of CTDSP1, concentration-response testing, biochemical assay, absorbance-based, actives from ultra-high-throughput screening (AID 540297); assay type: functional
T5 sequence (Q9GZU7 whole entry): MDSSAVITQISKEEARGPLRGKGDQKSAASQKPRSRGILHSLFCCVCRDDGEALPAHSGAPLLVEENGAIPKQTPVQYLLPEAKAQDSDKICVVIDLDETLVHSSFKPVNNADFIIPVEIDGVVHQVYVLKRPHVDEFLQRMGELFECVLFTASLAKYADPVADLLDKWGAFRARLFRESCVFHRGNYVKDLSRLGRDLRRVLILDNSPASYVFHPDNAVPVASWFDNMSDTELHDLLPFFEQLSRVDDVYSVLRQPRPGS

[2] = NIH-3T3 fibroblast cytotoxicity, dose response, cytotoxicity control, cell-based, fluorescence, Alamar Blue, secondary assay (AID 2327); assay type: functional;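 also: NIH-3T3 mouse fibroblasts cultured with fluconazole at 8 µg/mL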
[3] = C. albicans growth with fluconazole, confirmation, fluorescence, retest (AID 2467); assay type: functional, cell-based
[4] = target: T6, Serine/threonine-protein phosphatase (Candida dubliniensis (strain CD36 / CBS 7987 / NCPF 3949 / NRRLY-17841) (Yeast), UniProt B9W6M3); experiment: calcineurin pathway inhibitors in yeast reporter, dose response, S. cerevisiae, CDRE-lacZ, luminescence, secondary (AID 2388); assay type: functional, cell-based;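 also: yeast reporter cells carrying a calcineurin-responsive lacZ construct stimulated with calcium chloride; luminescent beta-galactosidase reporter signal in whole cells rather than isolated phosphatase activity; potency for inhibition where a drop in reporter signal means calcineurin blockade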
T6 sequence (B9W6M3 whole entry): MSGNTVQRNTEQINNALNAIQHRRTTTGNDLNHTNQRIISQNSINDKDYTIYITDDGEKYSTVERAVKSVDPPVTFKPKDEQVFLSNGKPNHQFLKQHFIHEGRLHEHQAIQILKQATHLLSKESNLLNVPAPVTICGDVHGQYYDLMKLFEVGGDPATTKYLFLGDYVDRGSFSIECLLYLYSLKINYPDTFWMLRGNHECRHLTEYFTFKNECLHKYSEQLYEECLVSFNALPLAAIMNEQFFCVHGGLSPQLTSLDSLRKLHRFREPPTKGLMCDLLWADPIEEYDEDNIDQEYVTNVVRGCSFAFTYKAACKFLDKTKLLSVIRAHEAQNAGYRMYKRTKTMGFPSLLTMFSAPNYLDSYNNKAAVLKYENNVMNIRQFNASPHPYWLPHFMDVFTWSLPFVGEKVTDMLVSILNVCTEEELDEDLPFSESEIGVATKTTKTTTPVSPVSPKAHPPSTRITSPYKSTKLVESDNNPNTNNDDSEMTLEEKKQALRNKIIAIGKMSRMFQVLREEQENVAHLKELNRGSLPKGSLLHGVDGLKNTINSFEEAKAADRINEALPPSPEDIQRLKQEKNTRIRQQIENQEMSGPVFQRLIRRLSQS

Bcl-2-related protein A1 = target: T7, Bcl-2-related protein A1 (Mus musculus, UniProt Q07440); assay type: functional;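 also: confirmatory dose–response counterscreen on Bfl-1, used to check hits from a UBC13 polyubiquitin inhibitor campaign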
T7 sequence (Q07440 whole entry): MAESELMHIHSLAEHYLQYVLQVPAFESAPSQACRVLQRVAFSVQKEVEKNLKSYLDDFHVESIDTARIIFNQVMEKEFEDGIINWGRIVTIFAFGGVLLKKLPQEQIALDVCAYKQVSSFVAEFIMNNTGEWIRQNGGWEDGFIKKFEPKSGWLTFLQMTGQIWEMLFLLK

[5] = target: T8, Ubiquitin-conjugating enzyme E2 N (Homo sapiens, UniProt P61088); assay type: functional
T8 sequence (P61088 whole entry): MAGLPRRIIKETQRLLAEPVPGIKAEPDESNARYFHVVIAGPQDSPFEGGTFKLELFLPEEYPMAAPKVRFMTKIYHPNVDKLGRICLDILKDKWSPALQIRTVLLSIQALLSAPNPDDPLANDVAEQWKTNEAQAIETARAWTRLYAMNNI

[6] = target: T8, Ubiquitin-conjugating enzyme E2 N; assay type: functional; remark: listed apart in the source
Vero = experiment: cells; assay type: functional; conditions: Chlorocebus sabaeus
[7] = target: ATP-dependent molecular chaperone HSP82 (Candida albicans (strain WO-1) (Yeast), UniProt C4YTQ8); experiment: loss of DOC-induced GRE-beta-galactosidase reporter signal, dose response, Hsp90 inhibitor project, S. cerevisiae, luminescence (AID 2400); assay type: functional, cell-based;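 also: beta-galactosidase luminescence from glucocorticoid response element reporter as proxy for Hsp90 function; inhibitor potency where signal loss means Hsp90 inhibition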
Chain of ATP-dependent molecular chaperone HSP82 (C4YTQ8 whole entry): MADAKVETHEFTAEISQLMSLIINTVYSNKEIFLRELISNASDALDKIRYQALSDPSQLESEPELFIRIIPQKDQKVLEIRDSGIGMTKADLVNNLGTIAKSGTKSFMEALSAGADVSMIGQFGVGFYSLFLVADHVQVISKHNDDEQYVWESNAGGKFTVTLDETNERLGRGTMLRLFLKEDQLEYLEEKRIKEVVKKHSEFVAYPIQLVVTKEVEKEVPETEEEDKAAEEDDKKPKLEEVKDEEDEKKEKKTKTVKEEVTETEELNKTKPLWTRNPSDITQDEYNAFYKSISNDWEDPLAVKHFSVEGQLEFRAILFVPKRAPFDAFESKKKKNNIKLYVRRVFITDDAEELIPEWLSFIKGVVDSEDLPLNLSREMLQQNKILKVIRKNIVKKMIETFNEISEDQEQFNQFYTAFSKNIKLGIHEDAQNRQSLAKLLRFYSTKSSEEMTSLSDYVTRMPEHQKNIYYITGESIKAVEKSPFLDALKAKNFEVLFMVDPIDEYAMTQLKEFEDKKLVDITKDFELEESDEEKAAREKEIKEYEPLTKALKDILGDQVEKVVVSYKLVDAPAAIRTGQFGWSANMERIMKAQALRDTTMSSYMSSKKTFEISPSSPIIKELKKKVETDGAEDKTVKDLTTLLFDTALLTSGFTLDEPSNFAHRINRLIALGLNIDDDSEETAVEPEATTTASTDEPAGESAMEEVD

## COc1cc2c(cc1OC)-c1cc(NCc3ccc4c(c3)OCO4)nc(=O)n1CC2
Hexokinase-1
  IC50: > 80 µM (inactive)
Hexokinase HKDC1
  IC50: > 80 µM (inactive)

## CN(C)c1ccc(/C=C/c2nc3ccccc3c(=O)n2Cc2ccccc2)cc1
Hexokinase-1
  IC50: > 80 µM (inactive)
Hexokinase HKDC1
  IC50: > 80 µM (inactive)

## c1ccc(CSc2nnc3c(n2)OC(c2ccco2)Nc2ccccc2-3)cc1 (stereo not given)
Cysteine protease ATG4B
  IC50: 43 µM (inactive)
Phospholipase A2
  IC50: 40.1 µM (inactive)

## Cc1ccc(/C=C/c2nc3ccccc3c(=O)n2Cc2ccccc2)cc1
Hexokinase-1
  IC50: > 80 µM (inactive)
Hexokinase HKDC1
  IC50: > 80 µM (inactive)

## CCOC(=O)c1ccc(/C=C2/C=C(c3ccccc3)N(c3ccc(Cl)c(C(=O)O)c3)C2=O)cc1
Leucine aminopeptidase
  IC50: 29.5 µM (active)
Cysteine protease ATG4B
  IC50: 12.3 µM (active)
Phospholipase A2
  IC50: 8.04 µM (active)
[1]
  IC50: 5.15 µM (active)

## Cc1cc(C)cc(OCC(=O)NNC(=S)NC(=O)C2CC2)c1
[2]
  EC50: 43.5 µM (active)
[3]
  EC50: 0.962 µM (active)
[4]
  EC50: > 180 µM (inactive)
Bcl-2-related protein A1
  IC50: > 20 µM (inactive)
[5]
  IC50: 7.6 µM (active)
[6]
  IC50: 7.38 µM (active)
Vero
  CC50: > 25 µM (active)
[7]
  EC50: 17.8 µM (active)

Reference: ChEMBL document CHEMBL1201862, “PubChem BioAssay data set” (2004)
